From patent publication US11773062B2, “Deuterated compounds” (priority 2021, dated 2023)
Like-named read-outs stand apart in the source and are kept apart here.

How the values were obtained:
[1] = molecular target: T1, CYP2C8 (Homo sapiens, UniProt P10632); test: in vitro; settings: E. coli CYPEX membranes, 100 pmol/mL CYP
T1 sequence (P10632 1-490): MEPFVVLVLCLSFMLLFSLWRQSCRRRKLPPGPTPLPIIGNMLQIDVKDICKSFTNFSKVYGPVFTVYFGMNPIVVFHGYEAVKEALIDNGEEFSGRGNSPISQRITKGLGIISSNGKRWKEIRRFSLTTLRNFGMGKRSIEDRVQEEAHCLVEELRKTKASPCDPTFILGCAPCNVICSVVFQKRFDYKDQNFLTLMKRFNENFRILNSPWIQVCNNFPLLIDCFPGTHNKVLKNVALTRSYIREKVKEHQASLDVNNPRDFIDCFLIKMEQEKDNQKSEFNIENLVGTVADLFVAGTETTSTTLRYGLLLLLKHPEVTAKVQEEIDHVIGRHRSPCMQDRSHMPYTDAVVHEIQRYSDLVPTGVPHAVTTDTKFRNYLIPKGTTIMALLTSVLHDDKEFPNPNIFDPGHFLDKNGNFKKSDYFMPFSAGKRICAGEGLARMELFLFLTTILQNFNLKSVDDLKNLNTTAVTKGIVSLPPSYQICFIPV
Procedure: (§1) Samples were taken at predetermined time points.
(§2) Samples were then centrifuged at −4° C.
(§3) Positive control markers are as specified in Table 11.

[2] = molecular target: T2, CYP1A2 (Homo sapiens, UniProt P05177); test: in vitro; settings: E. coli CYPEX membranes, 100 pmol/mL CYP
T2 sequence (P05177 1-516): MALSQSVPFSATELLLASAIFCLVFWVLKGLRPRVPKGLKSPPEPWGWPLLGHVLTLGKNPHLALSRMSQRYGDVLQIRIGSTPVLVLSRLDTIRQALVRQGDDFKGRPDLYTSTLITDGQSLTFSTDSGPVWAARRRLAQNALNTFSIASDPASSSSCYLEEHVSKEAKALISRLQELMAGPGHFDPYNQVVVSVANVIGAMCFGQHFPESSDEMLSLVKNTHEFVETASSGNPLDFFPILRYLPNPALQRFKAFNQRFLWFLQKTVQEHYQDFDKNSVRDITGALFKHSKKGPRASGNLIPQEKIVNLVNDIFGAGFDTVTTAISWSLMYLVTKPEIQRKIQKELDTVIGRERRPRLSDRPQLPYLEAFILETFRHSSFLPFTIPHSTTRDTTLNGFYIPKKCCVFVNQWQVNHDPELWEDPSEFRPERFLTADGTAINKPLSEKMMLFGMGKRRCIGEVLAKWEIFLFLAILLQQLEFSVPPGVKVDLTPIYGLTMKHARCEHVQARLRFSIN
Procedure: as §1, §2, §3

[3] = molecular target: T3, CYP2B6 (Homo sapiens, UniProt P20813); test: in vitro; settings: E. coli CYPEX membranes, 100 pmol/mL CYP
T3 sequence (P20813 1-491): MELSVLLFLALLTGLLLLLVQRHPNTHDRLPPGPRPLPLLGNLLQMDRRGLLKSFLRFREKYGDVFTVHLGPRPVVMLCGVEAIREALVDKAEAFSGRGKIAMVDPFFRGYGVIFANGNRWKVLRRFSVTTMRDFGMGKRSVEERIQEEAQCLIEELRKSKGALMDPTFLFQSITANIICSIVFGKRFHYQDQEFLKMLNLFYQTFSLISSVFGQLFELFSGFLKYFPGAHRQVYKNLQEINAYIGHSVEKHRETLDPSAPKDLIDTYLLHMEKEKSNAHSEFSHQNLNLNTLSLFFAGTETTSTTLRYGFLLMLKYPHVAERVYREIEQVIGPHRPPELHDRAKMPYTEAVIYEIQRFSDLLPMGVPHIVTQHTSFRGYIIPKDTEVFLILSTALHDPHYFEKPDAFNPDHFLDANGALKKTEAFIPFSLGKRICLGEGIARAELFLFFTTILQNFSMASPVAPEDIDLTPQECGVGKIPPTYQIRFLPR
Procedure: as §1, §2, §3

[4] = molecular target: CYP3A5 (Homo sapiens, UniProt P20815); test: in vitro; settings: E. coli CYPEX membranes, 100 pmol/mL CYP
Procedure: as §1, §2, §3

[5] = molecular target: T4, CYP2D6 (Homo sapiens, UniProt P10635); test: CYP phenotyping, CYP bactosomes; settings: for half-life, CYP isoform 2D6 / intrinsic clearance, CYP isoform 2D6: E. coli CYPEX membranes, 100 pmol/mL CYP; for projected scaled intrinsic clearance, CYP isoform 2D6: scaled by estimated CYP abundance in human liver microsomes (0.012 nmol CYP/mg)
Procedure: (§5) The CYPs used in this study are heterologously expressed in E. coli and purchased as individualised forms (CYP bactosomes) from CYPEX. Bactosomes contain recombinant CYP isoenzymes combined with CYP reductase leading to a higher specific activity than liver microsomes.
(§6) Phosphate buffer is prepared at 0.1 M, pH 7.4 by combining 0.1 M Na2HPO4 and 0.1 M KH2PO4 solutions.
(§7) Nicotinamide adenine dinucleotide 2′-phosphate reduced tetrasodium salt hydrate (NADPH) is prepared at 10 m<in 0.1 M phosphate buffer (pH 7.4).
(§8) The individual CYP bactosomes are thawed at room temperature undiluted to 200 pmol/mL and 0.1 M phosphate buffer.
(§9) Standard final incubation conditions are 1-3 μM compound in a buffer containing 100 pmol/mL CYP bactosome, 1% (v/v) DMSO.
(§10) The elimination rate constant (k) is calculated using the slope of a ln (MS peak area or response—if internal standard is used) vs. time plot of the test compounds and markers.
(§11) Intrinsic clearance in μL/min/nmol CYP is calculated using the following equation: Clint=−1000 k/CYP concentration
(§12) Projected CYP isoform intrinsic clearance accounting for estimated CYP abundance in human liver microsomes (μL/min/mg microsomal protein)* is calculated using the following equation: Projected set isoform intrinsic clearance=Estimated CYP abundance*Clint * Estimated CYP abundance is taken as an average from three literature references 1, 2 3 and the abundances used are as follows (nmol CYP/mg Human Liver Microsomal Protein):

[6] = molecular target: CYP2C19 (Homo sapiens, UniProt P33261); test: CYP phenotyping, CYP bactosomes; settings: for half-life, CYP isoform 2C19 / intrinsic clearance, CYP isoform 2C19: E. coli CYPEX membranes, 100 pmol/mL CYP; for projected scaled intrinsic clearance, CYP isoform 2C19: scaled by estimated CYP abundance in human liver microsomes (0.009 nmol CYP/mg)
Procedure: as §1, §2, §3

[7] = molecular target: CYP3A4 (Homo sapiens, UniProt P08684); test: CYP phenotyping, CYP bactosomes; settings: E. coli CYPEX membranes, 100 pmol/mL CYP
Procedure: as §1, §2, §3

[8] = molecular target: CYP2C9 (Homo sapiens, UniProt P11712); test: CYP phenotyping, CYP bactosomes; settings: E. coli CYPEX membranes, 100 pmol/mL CYP
Procedure: as §1, §2, §3

[9] = molecular target: T4, CYP2D6
Procedure: as §5, §6, §7, §8, §9, §10, §11, §12

[10] = system: mouse (male CD-1) hepatocytes; test: In vitro mouse hepatocytic intrinsic clearance; settings: mouse CD-1 hepatocytes 0.367 million cells/mL, 5 μM (Table 8)
[11] = system: human (mixed gender) hepatocytes; test: In vitro intrinsic clearance in human hepatocytes with and without MAO-A/B inhibitor combination (first experiment); settings: for % change in half-life, MAO inhibitors vs no inhibitors / % change in intrinsic clearance, MAO inhibitors vs no inhibitors: human hepatocytes (Table 5); for Intrinsic clearance, with inhibitors / Intrinsic clearance, without inhibitors / Half-life, with inhibitors / Half-life, without inhibitors: human hepatocytes
Procedure: Standard final incubation conditions are 1 μM compound in buffer containing nominally ˜0.5 million viable cells/mL, ˜0.9% (v/v) acetonitrile (MeCN) and ˜0.1% (v/v) DMSO (specific assay concentrations outlined above, section 2).
Samples are then centrifuged at 4° C.

[12] = Human liver mitochondrial fraction intrinsic clearance of SPL026, SPL028i, SPL028iii, SPL028viii; assay type: in vitro ADME; settings: for Intrinsic Clearance / half-life: 0.5 mg/mL human liver mitochondrial fraction (Table 10)
From the text: (§4) Human Liver Mitochondrial (HLMt) fractions contain high quantities of MAO enzymes and therefore, provide a useful tool to measure the clearance of MAO substrates.

[13] = Human liver mitochondrial fraction intrinsic clearance of SPL026 with/without MAO-A and MAO-B inhibitors; assay type: in vitro ADME
From the text: as §4

[14] = In vitro mouse hepatocytic intrinsic clearance; settings: male, CD-1, mouse, hepatocytes
[15] = with 100 nM clorgyline + 100 nM deprenyl/selegiline (Table 3)
[16] = with MAO-A/B inhibitor combination (Table 5)
[17] = without MAO-A/B inhibitor combination (Table 5)
[18] = 0.5 mg/mL human liver mitochondrial fraction, DMSO Vehicle (no inhibitor)
[19] = without MAO inhibitors (Table 4; unit given only in Table 5)

T4 sequence (P10635 whole entry, canonical isoform): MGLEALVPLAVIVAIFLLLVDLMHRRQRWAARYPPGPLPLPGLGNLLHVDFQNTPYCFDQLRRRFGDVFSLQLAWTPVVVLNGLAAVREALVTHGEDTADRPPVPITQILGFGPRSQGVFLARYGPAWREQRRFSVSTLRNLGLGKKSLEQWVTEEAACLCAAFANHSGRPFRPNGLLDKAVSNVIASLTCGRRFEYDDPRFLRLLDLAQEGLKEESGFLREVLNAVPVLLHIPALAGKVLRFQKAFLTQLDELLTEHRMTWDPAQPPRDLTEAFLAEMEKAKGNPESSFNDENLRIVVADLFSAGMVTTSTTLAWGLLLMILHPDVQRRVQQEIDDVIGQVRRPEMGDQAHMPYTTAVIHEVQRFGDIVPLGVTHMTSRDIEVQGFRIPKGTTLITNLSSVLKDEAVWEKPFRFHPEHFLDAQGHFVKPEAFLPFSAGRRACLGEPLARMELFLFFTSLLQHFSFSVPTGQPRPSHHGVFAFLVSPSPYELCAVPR
Sequence of CYP3A5 (P20815 whole entry): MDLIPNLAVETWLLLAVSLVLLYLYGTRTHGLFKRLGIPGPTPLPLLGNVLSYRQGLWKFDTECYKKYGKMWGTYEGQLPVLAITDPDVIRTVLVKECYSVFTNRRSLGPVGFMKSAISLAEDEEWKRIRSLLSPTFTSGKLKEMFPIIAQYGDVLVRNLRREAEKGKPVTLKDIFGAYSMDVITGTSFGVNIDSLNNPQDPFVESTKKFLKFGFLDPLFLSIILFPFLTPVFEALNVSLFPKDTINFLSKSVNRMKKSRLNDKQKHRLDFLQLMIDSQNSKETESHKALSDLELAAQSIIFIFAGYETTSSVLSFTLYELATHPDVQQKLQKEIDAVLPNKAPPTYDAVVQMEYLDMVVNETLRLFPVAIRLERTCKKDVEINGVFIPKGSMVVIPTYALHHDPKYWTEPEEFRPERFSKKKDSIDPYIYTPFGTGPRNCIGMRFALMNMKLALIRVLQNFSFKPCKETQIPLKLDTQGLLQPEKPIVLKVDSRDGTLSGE
Sequence of CYP2C9 (P11712 whole entry): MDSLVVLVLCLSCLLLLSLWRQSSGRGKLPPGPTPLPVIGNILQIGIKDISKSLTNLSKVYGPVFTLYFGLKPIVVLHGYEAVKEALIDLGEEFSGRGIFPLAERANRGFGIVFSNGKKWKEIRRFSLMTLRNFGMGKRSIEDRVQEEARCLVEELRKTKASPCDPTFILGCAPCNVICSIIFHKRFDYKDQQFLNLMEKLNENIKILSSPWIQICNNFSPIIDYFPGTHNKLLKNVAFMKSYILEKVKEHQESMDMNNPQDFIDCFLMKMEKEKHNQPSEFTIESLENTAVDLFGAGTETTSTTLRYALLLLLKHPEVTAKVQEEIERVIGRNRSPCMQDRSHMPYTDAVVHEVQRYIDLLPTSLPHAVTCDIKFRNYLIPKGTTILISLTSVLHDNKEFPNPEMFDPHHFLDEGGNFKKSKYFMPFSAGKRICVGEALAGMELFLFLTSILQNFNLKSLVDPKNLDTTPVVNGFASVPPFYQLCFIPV
Sequence of CYP2C19 (P33261 whole entry, canonical isoform): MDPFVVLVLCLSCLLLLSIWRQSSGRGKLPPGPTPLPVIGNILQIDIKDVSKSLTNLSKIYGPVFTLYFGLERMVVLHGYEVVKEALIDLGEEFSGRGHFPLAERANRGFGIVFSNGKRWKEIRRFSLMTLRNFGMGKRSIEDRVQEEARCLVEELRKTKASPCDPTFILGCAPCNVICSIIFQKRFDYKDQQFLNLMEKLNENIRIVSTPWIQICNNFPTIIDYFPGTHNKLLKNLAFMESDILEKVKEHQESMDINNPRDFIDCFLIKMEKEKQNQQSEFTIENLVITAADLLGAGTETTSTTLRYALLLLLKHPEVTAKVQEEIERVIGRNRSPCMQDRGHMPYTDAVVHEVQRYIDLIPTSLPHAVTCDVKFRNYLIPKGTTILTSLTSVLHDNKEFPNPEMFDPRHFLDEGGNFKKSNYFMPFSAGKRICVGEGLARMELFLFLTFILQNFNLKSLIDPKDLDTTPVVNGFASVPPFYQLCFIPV
Sequence of CYP3A4 (P08684 whole entry): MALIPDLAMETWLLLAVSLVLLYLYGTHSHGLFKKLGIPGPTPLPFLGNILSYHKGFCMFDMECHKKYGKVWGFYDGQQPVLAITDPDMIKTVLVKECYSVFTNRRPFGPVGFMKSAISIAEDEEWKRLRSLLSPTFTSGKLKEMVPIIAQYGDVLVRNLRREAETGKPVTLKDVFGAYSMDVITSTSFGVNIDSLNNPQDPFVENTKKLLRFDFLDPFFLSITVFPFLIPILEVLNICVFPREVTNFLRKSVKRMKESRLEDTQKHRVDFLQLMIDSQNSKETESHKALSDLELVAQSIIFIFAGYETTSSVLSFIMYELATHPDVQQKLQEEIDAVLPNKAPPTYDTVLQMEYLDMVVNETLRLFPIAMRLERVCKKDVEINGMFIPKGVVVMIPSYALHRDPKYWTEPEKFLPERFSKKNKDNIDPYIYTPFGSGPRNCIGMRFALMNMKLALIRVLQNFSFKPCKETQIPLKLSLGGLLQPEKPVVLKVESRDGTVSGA

| Compound | half-life, CYP isoform 2C8 [1] [h] | intrinsic clearance, CYP isoform 2C8 [1] [μL/min/nmol CYP] | half-life, CYP isoform 1A2 [2] [h] | half-life, CYP isoform 2B6 [3] [h] | half-life, CYP isoform 3A5 [4] [h] | intrinsic clearance, CYP isoform 3A5 [4] [μL/min/nmol CYP] | half-life, CYP isoform 2D6 [5] [h] | intrinsic clearance, CYP isoform 2D6 [5] [μL/min/nmol CYP] | half-life, CYP isoform 2C19 [6] [h] | intrinsic clearance, CYP isoform 2C19 [6] [μL/min/nmol CYP] | projected scaled intrinsic clearance, CYP isoform 2C19 [6] | half-life, CYP isoform 3A4 [7] [h] | intrinsic clearance, CYP isoform 3A4 [7] [μL/min/nmol CYP] | half-life, CYP isoform 2C9 [8] [h] | intrinsic clearance, CYP isoform 2C9 [8] [μL/min/nmol CYP] | % change in half-life, MAO inhibitors vs no inhibitors [11] [%] | % change in intrinsic clearance, MAO inhibitors vs no inhibitors [11] [%] | Intrinsic clearance, with inhibitors [11, 15] [μL/min/million cells] | Intrinsic clearance, with inhibitors [11, 16] [μL/min/million cells] | Intrinsic clearance, without inhibitors [11, 17] [μL/min/million cells] | other results |
| --- | --- | --- | --- | --- | --- | --- | --- | --- | --- | --- | --- | --- | --- | --- | --- | --- | --- | --- | --- | --- | --- |
| CN(C)CCc1c[nH]c2ccccc12 [DMT in SPL028i] | >4 | <29 | >4 | >4 | >4 | <29 | 0.167 | 687 | 2.93 | 40 | 0.4 μl/min/mg microsomal protein | >4 | <29 | >4 | <29 | – | – | – | – | – | projected scaled intrinsic clearance, CYP isoform 2D6 [5]: 8.1 μl/min/mg microsomal protein |
| [2H]C([2H])(Cc1c[nH]c2ccccc12)N(C)C [SPL028ii, α,α,-bis-deuterium-N,N-dimethyltryptamine] | >4 | <29 | >4 | >4 | >4 | <29 | 0.15 | 801 | 2.93 | 39 | 0.4 μl/min/mg microsomal protein | >4 | <29 | >4 | <29 | 14.69 | −19.13 | 8.78 | 8.78 | 10.46 | projected scaled intrinsic clearance, CYP isoform 2D6 [9]: 9.5 μl/min/mg microsomal protein; intrinsic clearance, CYP isoform 1A2 [2]: <29 μL/min/nmol CYP; intrinsic clearance, CYP isoform 2B6 [3]: <29 μL/min/nmol CYP; w Half-life [10]: 0.307 h; w Intrinsic clearance [10]: 102.7 μL/min/million cells; substrate for CYP2D6 ([5]; CYP phenotyping): substrates; substrate for CYP2C19 ([6]; CYP phenotyping): substrates |
| CN(C)CCc1c[nH]c2ccccc12 [DMT in SPL028ii] | >4 | <29 | >4 | >4 | >4 | <29 | 0.15 | 803 | 2.7 | 43 | 0.4 μl/min/mg microsomal protein | >4 | <29 | >4 | <29 | – | – | – | – | – | projected scaled intrinsic clearance, CYP isoform 2D6 [5]: 9.5 μl/min/mg microsomal protein |
| NCc1ccccc1 [Benzylamine, reference compound] | – | – | – | – | – | – | – | – | – | – | – | – | – | – | – | >83.41 | <−450 | <3.0 | <3.0 | 16.7 | Intrinsic Clearance [12]: 60.0 μL/min/mg protein; half-life [12]: 0.387 h; fold increase in intrinsic clearance, human liver mitochondria compared to hepatocyte fraction ([12]; positive controls): ~3.6 fold; half-life [13, 18]: 0.507 h; half-life ([13]; human liver mitochondrial fraction, Deprenyl (MAO-B inhibitor) 100 nM): >7.003 h; half-life at 5 μM [14]: 0.238 h; hepatocyte CLint at 5 μM [14]: 134 µL/min/1e6 cells; Half-life, with inhibitors [11, 16]: 7.67 h; Half-life, with inhibitors ([11]; with MAO-A/B inhibitors (Table 4; unit given only in Table 5)): 7.6667 h; Half-life, without inhibitors [11, 19]: 1.272 h; Half-life, without inhibitors [11, 17]: 1.27 h |
| NCCc1c[nH]c2ccc(O)cc12 [Serotonin, reference compound] | – | – | – | – | – | – | – | – | – | – | – | – | – | – | – | 73.75 | −282.18 | 10.10 | 10.1 | 38.6 | Intrinsic Clearance [12]: 151.0 μL/min/mg protein; half-life [12]: 0.153 h; half-life [13, 18]: 0.185 h; half-life ([13]; human liver mitochondrial fraction, Clorgyline (MAO-A inhibitor) 100 nM): >7.003 h; half-life at 5 μM [14]: 0.38 h; hepatocyte CLint at 5 μM [14]: 83 µL/min/1e6 cells; Half-life, without inhibitors [11, 19]: 0.55 h; Half-life, without inhibitors [11, 17]: 0.55 h |
